Results from US10793543B2, “Selective C-KIT kinase inhibitor” (PRECEDO PHARMACEUTICALS CO., LTD, priority 2016, dated 2020).

Key:
[1] = test system: GIST-T1 cells; experiment: Apoptosis, PARP and Caspase 3 cleavage by Western Blot, GIST-T1; type: cell-based, human; settings: GIST-T1, 0.3 μM, 48 hours
Source text: The effects of different concentrations of drugs on protein cleavage of DNA repairase poly(ADP-ribose) polymerase (PARP) and Caspase (cysteinyl aspartate-specific proteinase) 3 at different periods of time were examined by Western Blot.

[2] = test system: GIST-T1 cells; experiment: Cancer cell proliferation, CCK-8, GIST-T1; type: cell-based; settings: Homo sapiens, GISTT1, GIST-T1, KIT WT, 72 hours
Source text: (§1) In the present example, the following cells were used: chronic myelogenous leukemia cells K562 (expressing P210 Bcr-Abl mutant gene), human megakaryocytic leukemia cells MEG-01 (expressing P210 Bcr-Abl mutant gene), human peripheral blood basophilic leukemia cells Ku812 (expressing Bcr-Abl mutant gene) (all above cells purchased from ATCC, USA), human gastrointestinal stromal tumor cell lines GIST-T1 cells (expressing wild-type C-KIT gene) (purchased from Cosmo Bio Co., Ltd., Japan), human gastrointestinal stromal tumor cell lines GIST-882 cells (expressing wild-type C-KIT gene) (presented by the Professor Gray Lab, Dana-Farber Cancer Institute, Harvard University, USA), mouse pro-B cells BaF3 (purchased from ATCC, USA).
(§2) The cells were incubated for 72 hours, and then the number of viable cells was quantified with a microplate reader by using CCK-8 Cell Viability Assay Kit (purchased from Bestbio Company, Shanghai, China) (CCK-8 can be reduced by dehydrogenase in living cells to a highly water-soluble yellow formazan product, and the amount of formazan produced is proportional to the number of living cells).

[3] = test system: Tel-VEGFR2-BaF3 cells (VEGFR2); experiment: Cell proliferation, CCK-8, Tel-VEGFR2-BaF3; type: cell-based; settings: Mus musculus, Tel-VEGFR2-BaF3, VEGFR2, 72 hours
Source text: (§3) In addition, in the present example, further uses: mouse P210/BaF3 (stably expressing P210 Bcr-Abl mutant gene), mouse Tel-ABL-BaF3 (stably expressing wild-type ABL kinase), mouse Tel-cKit-BaF3 (stably expressing C-KITwild-type kinase), mouse Tel-cKit/V559D-BaF3 (stably expressing C-KIT V559D mutant kinase), mouse Tel-cKit/V559D/V654A-BaF3 (stably expressing C-KIT V559D/V654A mutant kinase), mouse Tel-cKit/N822K-BaF3 (stably expressing C-KIT N822K mutant kinase), mouse Tel-cKit/V654A-BaF3 (stably expressing C-KIT V654A mutant kinase), mouse Tel-cKit/L567P-BaF3 (stably expressing C-KIT L567P mutant kinase), mouse Tel-cKit/T670I-BaF3 (stably expressing C-KIT T670I mutant kinase), mouse Tel-PDGFRα-BaF3 (stably expressing PDGFRα kinase), mouse Tel-PDGFRβ-BaF3 (stably expressing PDGFRβ kinase), mouse Tel-VEGFR2-BaF3 (stably expressing VEGFR2 kinase), mouse Tel-RET-BaF3 (stably expressing RET kinase). The above cell lines were all constructed by our laboratory according to the following method: the kinase region sequences of human P210 Bcr-Abl, ABL, C-KIT, C-KIT V559D, C-KIT V559D/V654A, C-KIT N822K, C-KIT V654A, C-KIT L567P, C-KIT T670I, PDGFRα, PDGFRβ, VEGFR2, RET were amplified respectively by PCR, inserted respectively into MSCV-Puro vectors harboring N-terminal TEL fragment and/or NPM fragment and/or TPR fragment (Clontech), then the vectors were stably transfected into mouse BaF3 cells by retrovirus methods and growth factor IL-3 was removed, eventually obtaining cell lines that are transferred protein (P210 Bcr-Abl, ABL, C-KIT, C-KIT V559D, C-KIT V559D/V654A, C-KIT N822K, C-KIT V654A, C-KIT L567P, C-KIT T670I, PDGFRα, PDGFRβ, VEGFR2, RET)-dependent.
as §2

[4] = test system: Ku812 cells (Bcr-Abl); experiment: Cancer cell proliferation, CCK-8, Ku812; type: cell-based; settings: Homo sapiens; Ku812, Bcr-Abl, 72 hours, CCK-8; read-out: GI50
Source text: as §1, §2

[5] = test system: phosphorylation of C-KIT and pathway proteins in GIST-882 cells; experiment: Effects on cell signaling pathways (phosphorylation), GIST-882; type: cell-based, human; settings: GIST-882, 0.1 μM, 2 hours
[6] = test system: phosphorylation of Bcr-Abl kinase and pathway proteins in K562 cells; experiment: Effects on cell signaling pathways (phosphorylation), K562; type: cell-based, human; settings: K562, concentration up to 3 μM, 2 hours
[7] = test system: Tel-cKit/V654A-BaF3 cells (KIT V654A); experiment: Cell proliferation, CCK-8, Tel-cKit/V654A-BaF3; type: cell-based; settings: Mus musculus, 72 hours
Source text: as §3, §2

[8] = test system: Tel-PDGFRα-BaF3 cells (PDGFRα); experiment: Cell proliferation, CCK-8, Tel-PDGFRα-BaF3; type: cell-based; settings: Mus musculus, 72 hours
Source text: as §3, §2

[9] = test system: GIST-T1 cells; experiment: Cell cycle distribution by flow cytometry, GIST-T1; type: cell-based, human; settings: GIST-T1, treated 24 hours
[10] = test system: gastrointestinal stromal tumor cell lines GIST-882; experiment: Mouse tumor model of GIST-882 cells; type: in vivo; settings: GIST-882 model; for tumor inhibition rate: Day 21 after administration
Description: 1. 4-6 week-old Bal b/c female mice were purchased from Shanghai SLAC Experimental Animal Co., Ltd., and were raised in a SPF-level laboratory. Drinking water and padding were both subjected to aseptic processing via high-pressure disinfection, and all operations of the mice were conducted under aseptic conditions;
2. About 5×10^6 gastrointestinal stromal tumor cell lines GIST-T1 or GIST-882 (purchased from ATCC) were respectively injected subcutaneously at left side back of all mice at Day 0;
5. Mice were sacrificed on Day 36 (for GIST-882 mouse model) or Day 43 (GIST-T1 mouse model) and subcutaneous tumors were taken out and weighed for comparison;
6. Tumor tissue specimens were prepared into protein lysate samples for further usage;
7. Growth trend of subcutaneous tumors from Day 16 to Day 43 was derived, and tumor volume was calculated as length×width×width/2 mm^3.

[11] = test system: phosphorylation of C-KIT and pathway proteins in GIST-T1 cells; experiment: Effects on cell signaling pathways (phosphorylation), GIST-T1; type: cell-based, human; settings: GIST-T1, 0.1 μM, 2 hours
[12] = test system: Tel-cKit/T670I-BaF3 cells (KIT T670I); experiment: Cell proliferation, CCK-8, Tel-cKit/T670I-BaF3; type: cell-based; settings: Mus musculus, 72 hours
Source text: as §3, §2

[13] = test system: Tel-cKit/L576P-BaF3 cells (KIT L576P); experiment: Cell proliferation, CCK-8, Tel-cKit/L576P-BaF3; type: cell-based; settings: Mus musculus, 72 hours
Source text: as §3, §2

[14] = test system: Tel-cKit-BaF3 cells (KIT WT); experiment: Cell proliferation, CCK-8, Tel-cKit-BaF3; type: cell-based; settings: Mus musculus, 72 hours
Source text: as §3, §2

Cc1ccc(NC(=O)c2cccc(C(F)(F)F)c2)cc1OC1CCN(C(=O)c2ccncc2)CC1 [Compound 4]
cleavage of PARP and Caspase 3 [1]: significant cleavage
GI50 [2]: 21 nM
GI50 [3]: 347 nM
GI50 [4]: 6710 nM
phosphorylation of C-KIT oncogenic protein [5]: significantly inhibiting
phosphorylation of proteins such as Stat5, AKT, ErK, S6K, S6, PDGFRα [5]: significant inhibitory effects
phosphorylation of Bcr-Abl kinase [6]: no effect
phosphorylation of proteins such as AKT, ErK [6]: no effect
GI50 [7]: 1030 nM
GI50 [8]: 38 nM
effect on cell cycle [9]: significantly blocked in the GO-G1 phase
tumor inhibition rate ([10]; 50 mg/kg oral daily): 44%
tumor inhibition rate ([10]; 100 mg/kg oral daily): 58%
effect on body weight of mice ([10]; oral daily dosing): no effect on the body weight of mice
phosphorylation of C-KIT oncogenic protein [11]: significantly inhibiting
phosphorylation of proteins such as Stat5, AKT, ErK, S6K, S6, PDGFRα [11]: significant inhibitory effects
GI50 [12]: 5310 nM
GI50 [13]: 148 nM
GI50 [14]: 190 nM
